How the values were obtained:
Assay type in all cases: in vivo
[1] = tested on: LPS-induced serum TNF-α; test: Mouse LPS-induced serum TNF-α inhibition; details: po
Method: Compounds were tested in this animal model according to previously described methods (Corral et al., 1996, Mol. Med., 2:506-515). Mouse LPS-induced serum TNF-α inhibition (ED50, mg/kg, p.o.)=0.05 for Compound A.

[2] = tested on: LPS-induced neutrophilia in the lungs of conscious ferrets; test: LPS-induced lung neutrophilia ferret model; details: Mustela putorius, po, read-out: Inhibition of LPS-induced neutrophilia (ED50)
[3] = tested on: conscious ferret; test: Emesis and behavioral changes in conscious ferret
Method: The conscious ferret model has been used to investigate anti-inflammatory, emetic and behavioral effects of PDE4 inhibitors when administered by the oral (p.o.) route. From these experiments, a therapeutic index (TI) for each PDE4 inhibitor may be determined. The TI has been calculated by dividing the threshold dose for causing emetic episodes and behavioral changes by the anti-inflammatory dose (dose that causes 50% inhibition of the LPS-induced neutrophilia).
PDE4 inhibitors were administered orally (p.o.), at doses initially of […], but subsequently up to 30 mg/kg in order to establish whether the TI was 10 or higher, and/or at lower doses to establish the minimum dose to cause 50% inhibition of neutrophilia. Ferrets were fasted overnight but allowed free access to water. The animals were orally dosed with vehicle or PDE4 inhibitor using a 15 cm dosing needle that was passed down the back of the throat into the oesophagus. After dosing, the animals were returned to holding cages fitted with Perspex doors to allow observation, and given free access to water. After dosing, the animals were constantly observed and any emesis or behavioral changes were recorded. The animals were allowed access to food 60 to 90 minutes after p.o. dosing.
Thirty minutes after p.o. dosing with compound or vehicle control, the ferrets were placed into sealed Perspex containers and exposed to an aerosol of LPS (100 μg/ml) for 10 minutes. Aerosols of LPS were generated by a nebulizer (DeVilbiss, USA) and this was directed into the Perspex exposure chamber. Following a 10 minute exposure period, the animals were returned to the holding cages and allowed free access to water, and at a later stage, food. Observation continued for a period of at least 2.5 hours post p.o. dosing and emetic episodes and behavioral changes were recorded.
2. Emetic episodes—the number of vomits and retches were counted.
3. Behavioral changes—the following behavioral effects were noted: salivation, panting, mouth clawing, flattened posture, ataxia, arched back and backward walking Any behavioral changes were semi-quantified by applying a severity rating (mild, moderate or severe).
4. The TI was calculated as the highest dose found to not cause emetic episodes divided by the lowest dose found to inhibit pulmonary neutrophilia by 50% or more.
Numbers in parentheses refer to the number of animals that responded. The numbers of animals in each group range from 4 to 22.
From these experiments, a therapeutic index (TI) was determined for each compound by dividing the threshold dose for inducing emetic episodes by the ED50 value for inhibiting the pulmonary neutrophilia.

CCOc1cc(C(CS(C)(=O)=O)N2C(=O)c3cccc(NC(C)=O)c3C2=O)ccc1OC (single isomer, unassigned; (+)) [Compound A, (+)-2-[1-(3-ethoxy-4-methoxyphenyl)-2-methylsulfonylethyl]-4-acetylaminoisoindoline-1,3-dione]
ED50 [1]: 0.05 mg/kg | ED50 [2]: 0.8 mg/kg | Threshold emetic dose ([3]; conscious ferret, p.o.): 10 mg/kg | Ataxia, severity ([3]; ferret, 0.1 mg/kg p.o.): None | Backward walking, number of animals that responded ([3]; ferret, 0.1 mg/kg p.o.): (3/5) | Backward walking, severity ([3]; ferret, 0.1 mg/kg p.o.): Mild | Flattened posture, number of animals that responded ([3]; ferret, 0.1 mg/kg p.o.): (2/5) | Flattened posture, severity ([3]; ferret, 0.1 mg/kg p.o.): Mild | Lip licking, number of animals that responded ([3]; ferret, 0.1 mg/kg p.o.): (4/5) | Lip licking, severity ([3]; ferret, 0.1 mg/kg p.o.): Mild | Mouth clawing, severity ([3]; ferret, 0.1 mg/kg p.o.): None | Panting, severity ([3]; ferret, 0.1 mg/kg p.o.): None | Retches, severity ([3]; ferret, 0.1 mg/kg p.o.): None | Salivation, severity ([3]; ferret, 0.1 mg/kg p.o.): None | Vomits, severity ([3]; ferret, 0.1 mg/kg p.o.): None | Ataxia, severity ([3]; ferret, 0.3 mg/kg p.o.): None | Backward walking, number of animals that responded ([3]; ferret, 0.3 mg/kg p.o.): (4/6) | Backward walking, severity ([3]; ferret, 0.3 mg/kg p.o.): Mild | Flattened posture, number of animals that responded ([3]; ferret, 0.3 mg/kg p.o.): (2/6) | Flattened posture, severity ([3]; ferret, 0.3 mg/kg p.o.): Mild | Lip licking, number of animals that responded ([3]; ferret, 0.3 mg/kg p.o.): (3/6) | Lip licking, severity ([3]; ferret, 0.3 mg/kg p.o.): Mild | Mouth clawing, severity ([3]; ferret, 0.3 mg/kg p.o.): None | Panting, severity ([3]; ferret, 0.3 mg/kg p.o.): None | Retches, severity ([3]; ferret, 0.3 mg/kg p.o.): None | Salivation, severity ([3]; ferret, 0.3 mg/kg p.o.): None | Vomits, severity ([3]; ferret, 0.3 mg/kg p.o.): None | emetic episodes at anti-inflammatory dose ([3]; ferret, 1 mg/kg): no emetic episodes | Ataxia, severity ([3]; ferret, 1.0 mg/kg p.o.): None | Backward walking, number of animals that responded ([3]; ferret, 1.0 mg/kg p.o.): (4/6) | Backward walking, severity ([3]; ferret, 1.0 mg/kg p.o.): Mild | Flattened posture, number of animals that responded ([3]; ferret, 1.0 mg/kg p.o.): (2/6) | Flattened posture, severity ([3]; ferret, 1.0 mg/kg p.o.): Mild | Lip licking, number of animals that responded ([3]; ferret, 1.0 mg/kg p.o.): (6/6) | Lip licking, severity ([3]; ferret, 1.0 mg/kg p.o.): Mild | Mouth clawing, severity ([3]; ferret, 1.0 mg/kg p.o.): None | Panting, severity ([3]; ferret, 1.0 mg/kg p.o.): None | Retches, severity ([3]; ferret, 1.0 mg/kg p.o.): None | Salivation, severity ([3]; ferret, 1.0 mg/kg p.o.): None | Vomits, severity ([3]; ferret, 1.0 mg/kg p.o.): None | Ataxia, severity ([3]; ferret, 3.0 mg/kg p.o.): None | Backward walking, number of animals that responded ([3]; ferret, 3.0 mg/kg p.o.): (5/8) | Backward walking, severity ([3]; ferret, 3.0 mg/kg p.o.): Moderate | Flattened posture, number of animals that responded ([3]; ferret, 3.0 mg/kg p.o.): (7/8) | Flattened posture, severity ([3]; ferret, 3.0 mg/kg p.o.): Marked | Lip licking, number of animals that responded ([3]; ferret, 3.0 mg/kg p.o.): (2/8) | Lip licking, severity ([3]; ferret, 3.0 mg/kg p.o.): Mild | Mouth clawing, number of animals that responded ([3]; ferret, 3.0 mg/kg p.o.): (1/8) | Mouth clawing, severity ([3]; ferret, 3.0 mg/kg p.o.): Mild | Panting, severity ([3]; ferret, 3.0 mg/kg p.o.): None | Retches, severity ([3]; ferret, 3.0 mg/kg p.o.): None | Salivation, severity ([3]; ferret, 3.0 mg/kg p.o.): None | Vomits, severity ([3]; ferret, 3.0 mg/kg p.o.): None | Ataxia, severity ([3]; ferret, 10 mg/kg p.o.): None | Backward walking, number of animals that responded ([3]; ferret, 10 mg/kg p.o.): (6/6) | Backward walking, severity ([3]; ferret, 10 mg/kg p.o.): Marked | Flattened posture, number of animals that responded ([3]; ferret, 10 mg/kg p.o.): (6/6) | Flattened posture, severity ([3]; ferret, 10 mg/kg p.o.): Marked | Lip licking, number of animals that responded ([3]; ferret, 10 mg/kg p.o.): (5/6) | Lip licking, severity ([3]; ferret, 10 mg/kg p.o.): Moderate | Mouth clawing, number of animals that responded ([3]; ferret, 10 mg/kg p.o.): (1/6) | Mouth clawing, severity ([3]; ferret, 10 mg/kg p.o.): Mild | Panting, severity ([3]; ferret, 10 mg/kg p.o.): None | Retches, severity ([3]; ferret, 10 mg/kg p.o.): Mild | Salivation, number of animals that responded ([3]; ferret, 10 mg/kg p.o.): 1/6 | Salivation, severity ([3]; ferret, 10 mg/kg p.o.): Mild | Vomits, severity ([3]; ferret, 10 mg/kg p.o.): None | emesis ([3]; ferret, 10 mg/kg p.o.): no frank emesis | salivation and behavioral changes, score ([3]; ferret, 10 mg/kg p.o.): mild or moderate | Retches, number of animals that responded ([3]; ferret, 10 mg/kg p.o., 10 mg/kg): 2/6 and (2/6) | Ataxia, number of animals that responded ([3]; ferret, 30 mg/kg p.o.): (3/4) | Ataxia, severity ([3]; ferret, 30 mg/kg p.o.): Mild | Backward walking, number of animals that responded ([3]; ferret, 30 mg/kg p.o.): (2/4) | Backward walking, severity ([3]; ferret, 30 mg/kg p.o.): Mild | Flattened posture, number of animals that responded ([3]; ferret, 30 mg/kg p.o.): (4/4) | Flattened posture, severity ([3]; ferret, 30 mg/kg p.o.): Marked | Lip licking, number of animals that responded ([3]; ferret, 30 mg/kg p.o.): (4/4) | Lip licking, severity ([3]; ferret, 30 mg/kg p.o.): Moderate | Mouth clawing, number of animals that responded ([3]; ferret, 30 mg/kg p.o.): (4/4) | Mouth clawing, severity ([3]; ferret, 30 mg/kg p.o.): Marked | Panting, number of animals that responded ([3]; ferret, 30 mg/kg p.o.): (1/4) | Panting, severity ([3]; ferret, 30 mg/kg p.o.): Mild | Retches, number of animals that responded ([3]; ferret, 30 mg/kg p.o.): (3/4) | Retches, severity ([3]; ferret, 30 mg/kg p.o.): Marked | Salivation, number of animals that responded ([3]; ferret, 30 mg/kg p.o.): (3/4) | Salivation, severity ([3]; ferret, 30 mg/kg p.o.): Moderate | Vomits, number of animals that responded ([3]; ferret, 30 mg/kg p.o.): (3/4) | Vomits, severity ([3]; ferret, 30 mg/kg p.o.): Moderate | behavioral changes ([3]; ferret, 30 mg/kg p.o.): pronounced | emesis, animals affected ([3]; ferret, 30 mg/kg p.o.): 3/4 | emesis, severity ([3]; ferret, 30 mg/kg p.o.): moderate to marked | behavioral changes (flattened posture, lip licking, backward walking), classification ([3]; ferret, 0.1-3 mg/kg p.o.): mild | emetic episodes (retching and vomiting) ([3]; ferret, 0.1-3 mg/kg p.o.): no emetic episodes | Therapeutic index ([3]; threshold emetic dose divided by ED50 for pulmonary neutrophilia, ferret): 12
